Source: ChEMBL document CHEMBL1154508, “Discovery of GSK345931A: An EP(1) receptor antagonist with efficacy in preclinical models of inflammatory pain” (Bioorg Med Chem Lett, 2009)
pIC50, pKi: −log10 of the molar value.

Key:
[1] = Drug level in blood of sub-chronic rat joint pain efficacy model treatment group at 20 mg/kg bid measured on day 5 after 1 hr post dose; assay type: ADME, organism-based; set-up: dose 20 mg/kg; settings: read-out: Drug uptake
[2] = Volume of distribution at steady state in cynomolgus monkey at 1 mg/kg, iv; assay type: ADME, organism-based, Macaca fascicularis; set-up: dose 1 mg/kg, route intravenous; settings: in vivo, read-out: Vdss
[3] = species: Rattus norvegicus; experiment: Antiinflammatory activity against complete Freund's adjuvant-induced hypersensitivity in rat inflammatory pain model; assay type: functional
[4] = Drug level in brain of sub-chronic rat joint pain efficacy model satellite animal group at 20 mg/kg bid measured on day 5 after 1 hr post dose; assay type: ADME, organism-based; set-up: dose 20 mg/kg; settings: read-out: Drug uptake
[5] = biological target: T1, Prostaglandin E2 receptor EP1 subtype (Homo sapiens, UniProt P34995); experiment: Binding affinity to EP1 receptor
T1 sequence (P34995 whole entry): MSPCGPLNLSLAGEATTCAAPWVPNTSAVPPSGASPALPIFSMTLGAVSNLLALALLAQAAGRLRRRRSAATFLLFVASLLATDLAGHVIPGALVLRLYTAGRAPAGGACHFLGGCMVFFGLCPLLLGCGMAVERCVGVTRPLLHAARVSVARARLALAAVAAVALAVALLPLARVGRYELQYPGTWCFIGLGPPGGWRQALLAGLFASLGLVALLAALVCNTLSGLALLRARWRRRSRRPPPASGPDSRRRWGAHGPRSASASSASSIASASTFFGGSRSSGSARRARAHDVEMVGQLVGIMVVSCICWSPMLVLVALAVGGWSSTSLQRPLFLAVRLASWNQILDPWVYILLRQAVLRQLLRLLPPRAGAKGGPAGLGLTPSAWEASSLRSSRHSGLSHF

[6] = Solubility in simulated gastric fluid after 2 hrs; assay type: physicochemical
[7] = Ratio of drug level in brain to blood in rat at 0.28 mg/kg/hr, iv for 18 hrs; assay type: ADME, organism-based; set-up: route intravenous
[8] = Drug level in blood of complete Freund's adjuvant-induced rat inflammatory pain model at 1 mg/kg, po after 1 hr; assay type: ADME, organism-based; set-up: dose 1 mg/kg, route oral; settings: read-out: Drug uptake
[9] = Solubility in simulated gastric fluid after 24 hrs; assay type: physicochemical
[10] = Drug level in blood of sub-chronic rat joint pain efficacy model treatment group at 5 mg/kg bid measured on day 5 after 1 hr post dose; assay type: ADME, organism-based; set-up: dose 5 mg/kg; settings: read-out: Drug uptake
[11] = Drug level in mouse blood at 3 mg/kg, po after 0.5 hrs; assay type: ADME, organism-based; set-up: dose 3 mg/kg, route oral; settings: read-out: Drug uptake
[12] = Ratio of drug level in brain to blood of sub-chronic rat joint pain efficacy model satellite animal group at 5 mg/kg bid measured on day 5; assay type: ADME, organism-based; set-up: dose 5 mg/kg
[13] = Drug level in rat brain at 0.28 mg/kg/hr, iv for 18 hrs; assay type: ADME, organism-based; set-up: route intravenous; settings: read-out: Drug uptake
[14] = Drug level in blood of sub-chronic rat joint pain efficacy model satellite animal group at 5 mg/kg bid measured on day 1 after 1 hr post dose; assay type: ADME, organism-based; set-up: dose 5 mg/kg; settings: read-out: Drug uptake
[15] = biological target: T2, Prostaglandin E2 receptor EP1 subtype (Rattus norvegicus, UniProt P70597); experiment: Binding affinity to rat EP1 receptor
T2 sequence (P70597 whole entry): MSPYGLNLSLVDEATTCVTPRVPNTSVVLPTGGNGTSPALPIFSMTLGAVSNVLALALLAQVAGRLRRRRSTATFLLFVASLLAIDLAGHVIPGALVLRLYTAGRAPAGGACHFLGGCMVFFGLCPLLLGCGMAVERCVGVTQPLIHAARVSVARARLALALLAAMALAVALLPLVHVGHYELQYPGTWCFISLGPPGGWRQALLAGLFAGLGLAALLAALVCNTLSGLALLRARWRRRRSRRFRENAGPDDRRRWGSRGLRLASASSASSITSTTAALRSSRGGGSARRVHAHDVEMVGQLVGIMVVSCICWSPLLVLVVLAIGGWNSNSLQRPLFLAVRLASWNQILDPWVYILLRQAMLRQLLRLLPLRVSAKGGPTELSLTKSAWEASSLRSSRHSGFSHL

[16] = Ratio of drug level in brain to blood in complete Freund's adjuvant-induced rat inflammatory pain model at 1 mg/kg, po after 1 hr; assay type: ADME, organism-based; set-up: dose 1 mg/kg, route oral
[17] = Metabolic stability assessed as intrinsic clearance per gram of monkey liver microsomes; assay type: ADME, Macaca mulatta, Microsome; settings: rhesus monkey
[18] = Ratio of drug level in brain to blood in complete Freund's adjuvant-induced rat inflammatory pain model at 10 mg/kg, po after 1 hr; assay type: ADME, organism-based; set-up: dose 10 mg/kg, route oral
[19] = Half life in cynomolgus monkey at 1 mg/kg, iv; assay type: ADME, organism-based, Macaca fascicularis; set-up: dose 1 mg/kg, route intravenous; settings: in vivo
[20] = biological target: T3, Peroxisome proliferator-activated receptor alpha (Homo sapiens, UniProt Q07869); experiment: Binding affinity to PPARalpha
T3 sequence (Q07869 whole entry): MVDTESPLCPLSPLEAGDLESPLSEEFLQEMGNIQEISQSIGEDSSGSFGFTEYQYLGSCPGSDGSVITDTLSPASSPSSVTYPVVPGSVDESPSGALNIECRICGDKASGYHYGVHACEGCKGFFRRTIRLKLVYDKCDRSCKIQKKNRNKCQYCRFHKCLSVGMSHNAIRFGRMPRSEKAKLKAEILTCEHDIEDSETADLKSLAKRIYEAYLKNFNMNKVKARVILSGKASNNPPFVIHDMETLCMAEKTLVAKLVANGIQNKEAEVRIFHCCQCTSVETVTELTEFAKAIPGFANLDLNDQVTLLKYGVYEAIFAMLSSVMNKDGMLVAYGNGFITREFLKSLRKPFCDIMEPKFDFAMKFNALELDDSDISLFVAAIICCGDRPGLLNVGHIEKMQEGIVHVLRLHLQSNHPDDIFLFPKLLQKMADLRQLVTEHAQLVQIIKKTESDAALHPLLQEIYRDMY

[21] = Half life in rat at 1 mg/kg, iv; assay type: ADME, organism-based; set-up: dose 1 mg/kg, route intravenous; settings: in vivo
[22] = Ratio of drug level in brain to blood in complete Freund's adjuvant-induced rat inflammatory pain model 3 mg/kg, po after 1 hr; assay type: ADME, organism-based; set-up: dose 3 mg/kg, route oral
[23] = Ratio of drug level in brain to blood of sub-chronic rat joint pain efficacy model treatment group at 20 mg/kg bid measured on day 5 after 1 hr post dose; assay type: ADME, organism-based; set-up: dose 20 mg/kg

concentration at 1 h [1]: 5530 nM
Vd [2]: 0.5 L/kg
concentration at 1 h [4]: 3630 nM
pIC50 [5]: 7.80
solubility at 2 h [6]: 33 µg/mL
Kp at 18 h [7]: 0.33
concentration at 1 h [8]: 948 nM
solubility at 24 h [9]: 11 µg/mL
concentration at 1 h [10]: 1630 nM
concentration at 0.5 h [11]: 1120 nM
Kp at 5 day [12]: 0.54
concentration at 18 h [13]: 550 nM
concentration at 1 h [14]: 5270 nM
pIC50 [15]: 7.90
Kp at 1 h [16]: 0.27
CL [17]: 8 mL/min/g
Kp at 1 h [18]: 0.48
half-life [19]: 0.8 h
pKi [20]: < 4.70
half-life [21]: 3.5 h
Kp at 1 h [22]: 0.72
Kp at 1 h [23]: 0.45
Structure (SMILES): CC(C)COc1ccc(Cl)cc1-c1ccccc1-c1cccc(C(=O)[O-])n1.[Na+]
ED50 [3]: 1.6 mg/kg
